Results reported in patent US10597364B2, “Anthelmintic compounds, compositions and method of using thereof” (priority 2015, dated 2020).
Like-named read-outs stand apart in the source and are kept apart here.

Key:
[1] = human, Caco-2, pH 6.5
Description: Permeability of Compounds.
An in vitro model utilizing Caco-2/TC7 cells is employed to assess the permeability characteristics of new chemical entities (NCEs).
The permeability studies were performed under standard conditions in the apical to basolateral (A→B) direction with a pH gradient and a BSA gradient (standard apical medium (0.5% BSA at pH 6.5)/standard basal medium (5% BSA at pH 7.4)); conditions that most closely reflect the conditions in the in vivo situation. Samples were deproteinized by the addition of 400 μl acetonitrile to 200 μl sample, followed by a 20-minute centrifugation at 1730 g. Compound solubilisation: compound solutions at final concentrations of 20 μM were prepared following dilutions of stock solutions (starting from 10 mM in DMSO) in HBSS. Final concentration of DMSO was adjusted to 1%. Analytical conditions: Supernatants recovered following centrifugation were analysed by LC/MS/MS using a reverse phase column and the mobile phases delivered at 0.3 ml/minute in a gradient: water (A) and acetonitrile (B) (each with 0.1% formic acid).
Every experiment (n) represents the mean of 3 filters per experiment.

[2] = test system: Trichostrongylus colubriformis; test: Method F: Trichostrongylus colubriformis in vivo in Mongolian jirds; conditions: oral gavage, 5 mg/kg, necropsy 3 days after treatment
Description: (§1) Method to test activity of compounds against Trichostrongylus colubriformis in vivo in Mongolian jirds (Meriones unguiculatus). Mongolian jirds, at least five weeks old, that have been immunosuppressed were artificially infected with ensheathed Trichostrongylus colubriformis third instar larvae. Six days after infection, the jirds were treated by oral gavage with the test compounds, dissolved in a mixture of DMSO/corn oil, at doses of 30 mg/kg. Jirds treated only with the placebo (DMSO/corn oil carrier) served as controls. On day 9 (3 days after treatment) the jirds were euthanized and necropsied for recovery of parasites from the stomach. Efficacy was calculated as the average % reduction in the number of worms in each test group compared with the average number of worms from the control group. Compound 6 provided a 99% reduction in nematode infestation in Mongolian jirds treated by oral gavage with the test article at a dose of 5 mg/kg.

[3] = test system: Haemonchus contortus; test: Method E: Haemonchus contortus in vivo in Mongolian jirds; conditions: oral gavage, 5 mg/kg, necropsy 3 days after treatment
Description: Method to test activity of compounds against Haemonchus contortus in vivo in Mongolian jirds (Meriones unguiculatus).
as §1, with “Mongolian” for “Method to test activity of compounds against Trichostrongylus colubriformis in vivo in Mongolian jirds (Meriones unguiculatus). Mongolian”, “Haemonchus contortus” for “Trichostrongylus colubriformis”, “5” for “30”, “100%” for “99%”

[4] = test system: Haemonchus contortus; test: Method A: Haemonchus contortus L1 larval development/motility screen in microtitre plate; assay type: cell-based; conditions: 96 h, read-out: motility inhibition
[5] = test system: microfilaria of Dirofilaria immitis; test: Method C: microfilaria of Dirofilaria immitis motility screen; assay type: cell-based; conditions: read-out: inhibition of the microfilaria's motility
[6] = test system: anthelmintic-resistant isolate of Haemonchus contortus; test: Method B: screen against anthelmintic-resistant (benzimidazole-resistant) isolate of Haemonchus contortus; conditions: benzimidazole-resistant H. contortus isolate
Description: The conditions described in method A were used against an isolate of H. contortus found to be functionally resistant against the benzimidazole class of anthelmintics (e.g. 127-fold resistance to thiabendazole).

| SMILES | Papp A→B at 20 μM [1] [nm/s] | reduction in nematode infestation [2] [%] | reduction in nematode infestation [3] [%] | inhibition at 5 µM [4] [%] | inhibition at 5 ppm ([5]; 24 h) [%] | inhibition at 10 µM ([5]; 24 h) [%] | inhibition at 10 µM ([5]; 10 μM, 24 hours) [%] | resistance of the isolate to thiabendazole [6] [fold] |
| --- | --- | --- | --- | --- | --- | --- | --- | --- |
| N#Cc1ccc(NC2CCC(Oc3cncc(N4CCN(c5ccc(C(F)(F)F)cn5)CC4)c3)CC2)cc1C(F)(F)F (centres unmarked) [Compound 6, 4-[[4-[(5-[4-[5-(trifluoromethyl)pyridin-2-yl]piperazin-1-yl]pyridin-3-yl)oxy]cyclohexyl]amino]-2-(trifluoromethyl)benzonitrile] | 6.4 | 99 | 100 | ≥ 90 | – | – | – | – |
| CCCCC(=O)N1CCN(c2ccnc(O[C@H]3CC[C@H](Nc4ccc([N+](=O)[O-])c(C(F)(F)F)c4)CC3)c2)CC1 [Compound 17] | 39.9 | – | – | ≥ 90 | ≥ 90 | – | – | – |
| O=[N+]([O-])c1ccc(N[C@H]2CC[C@H](Oc3cncc(N4CCN(Cc5ccc(C(F)(F)F)cc5)CC4)c3)CC2)cc1C(F)(F)F [Compound 18] | 5.3 | – | – | ≥ 90 | – | ≥ 90 | – | – |
| CCCOC(=O)N1CCN(c2cncc(O[C@H]3CC[C@H](Nc4ccc([N+](=O)[O-])c(C(F)(F)F)c4)CC3)c2)CC1 [Compound 21] | 34.5 | – | – | ≥ 90 | ≥ 90 | – | – | – |
| O=C(Cc1ccc(F)cc1)N1CCN(c2cncc(O[C@H]3CC[C@H](Nc4ccc([N+](=O)[O-])c(C(F)(F)F)c4)CC3)c2)CC1 [Compound 22] | 15.7 | – | – | ≥ 90 | – | – | ≥ 90 | – |
| O=C(Cc1ccc(F)cc1)N1CCN(c2ccnc(O[C@H]3CC[C@H](Nc4ccc([N+](=O)[O-])c(C(F)(F)F)c4)CC3)c2)CC1 [Compound 23] | 10.9 | – | – | ≥ 90 | – | ≥ 90 | – | – |
| O=C(CCC(F)(F)F)N1CCN(c2cc(O[C@H]3CC[C@H](Nc4ccc([N+](=O)[O-])c(C(F)(F)F)c4)CC3)ccn2)CC1 [Compound 24] | 44.6 | – | – | ≥ 90 | – | ≥ 90 | – | – |
| O=[N+]([O-])c1ccc(N[C@H]2CC[C@H](Oc3cncc(N4CCN(CC5CCCC5)CC4)c3)CC2)cc1C(F)(F)F [Compound 27] | 23.3 | – | – | ≥ 90 | – | ≥ 90 | – | – |
| CC(C)(C)OC(=O)N1CCN(c2cc(O[C@H]3CC[C@H](Nc4ccc([N+](=O)[O-])c(C(F)(F)F)c4)CC3)ccn2)CC1 [Compound 34] | 17.7 | – | – | ≥ 90 | ≥ 90 | – | – | – |
| CC(C)(C)CC(=O)N1CCN(c2cncc(O[C@H]3CC[C@H](Nc4ccc([N+](=O)[O-])c(C(F)(F)F)c4)CC3)c2)CC1 [Compound 35] | 49.9 | – | – | ≥ 90 | ≥ 90 | – | – | – |
| CCCOC(=O)N1CCN(c2ccnc(O[C@H]3CC[C@H](Nc4ccc([N+](=O)[O-])c(C(F)(F)F)c4)CC3)c2)CC1 [Compound 36] | 24.1 | – | – | ≥ 90 | – | ≥ 90 | – | – |
| O=[N+]([O-])c1ccc(N[C@H]2CC[C@H](Oc3ccnc(N4CCN(CC5CCCC5)CC4)c3)CC2)cc1C(F)(F)F [Compound 37, 4-nitro-N-[4-([2-[4-(cyclopentylmethyl)piperazin-1-yl]pyridin-4-yl]oxy)cyclohexyl]-3-(trifluoromethyl)] | 25.5 | – | – | ≥ 90 | – | ≥ 90 | – | – |
| c1ccc2[nH]c(-c3cscn3)nc2c1 [thiabendazole] | – | – | – | – | – | – | – | 127 |
